In ChEMBL document CHEMBL3045835, “Comparative study of conventional and microwave-assisted synthesis of some Schiff bases and their potential as antimicrobial agents” (2012):
Converted amounts (≈) assume the structure as drawn.

Tests used:
Type in all cases: functional
[1] = system: Pseudomonas aeruginosa; test: Antibacterial activity against Pseudomonas aeruginosa MTCC 424 at 500 ug/ml after 18 hr by cup-plate method; settings: MTCC 424, 18 h, read-out: DIZ
[2] = system: Pseudomonas aeruginosa; test: Antibacterial activity against Pseudomonas aeruginosa MTCC 424 at 200 ug/ml after 18 hr by cup-plate method; settings: MTCC 424, 18 h, read-out: DIZ
[3] = system: Pseudomonas aeruginosa; test: Antibacterial activity against Pseudomonas aeruginosa MTCC 424 at 100 ug/ml after 18 hr by cup-plate method; settings: MTCC 424, 18 h, read-out: DIZ
[4] = system: Micrococcus luteus; test: Antibacterial activity against Micrococcus luteus MTCC 1538 at 1500 ug/ml after 18 hr by cup-plate method; settings: MTCC 1538, 18 h, read-out: DIZ
[5] = system: Micrococcus luteus; test: Antibacterial activity against Micrococcus luteus MTCC 1538 at 1000 ug/ml after 18 hr by cup-plate method; settings: MTCC 1538, 18 h, read-out: DIZ
[6] = system: Micrococcus luteus; test: Antibacterial activity against Micrococcus luteus MTCC 1538 at 500 ug/ml after 18 hr by cup-plate method; settings: MTCC 1538, 18 h, read-out: DIZ
[7] = system: Micrococcus luteus; test: Antibacterial activity against Micrococcus luteus MTCC 1538 at 200 ug/ml after 18 hr by cup-plate method; settings: MTCC 1538, 18 h, read-out: DIZ
[8] = system: Micrococcus luteus; test: Antibacterial activity against Micrococcus luteus MTCC 1538 at 100 ug/ml after 18 hr by cup-plate method; settings: MTCC 1538, 18 h, read-out: DIZ
[9] = system: Bacillus pumilus; test: Antibacterial activity against Bacillus pumilus MTCC 1456 at 1500 ug/ml after 18 hr by cup-plate method; settings: MTCC 1456, 18 h, read-out: DIZ
[10] = system: Bacillus pumilus; test: Antibacterial activity against Bacillus pumilus MTCC 1456 at 1000 ug/ml after 18 hr by cup-plate method; settings: MTCC 1456, 18 h, read-out: DIZ
[11] = system: Bacillus pumilus; test: Antibacterial activity against Bacillus pumilus MTCC 1456 at 500 ug/ml after 18 hr by cup-plate method; settings: MTCC 1456, 18 h, read-out: DIZ
[12] = system: Bacillus pumilus; test: Antibacterial activity against Bacillus pumilus MTCC 1456 at 200 ug/ml after 18 hr by cup-plate method; settings: MTCC 1456, 18 h, read-out: DIZ
[13] = system: Bacillus pumilus; test: Antibacterial activity against Bacillus pumilus MTCC 1456 at 100 ug/ml after 18 hr by cup-plate method; settings: MTCC 1456, 18 h, read-out: DIZ
[14] = system: Bacillus subtilis; test: Antibacterial activity against Bacillus subtilis MTCC 441 at 1000 ug/ml after 18 hr by cup plate method; settings: MTCC 441, 18 h, read-out: DIZ
[15] = system: Bacillus subtilis; test: Antibacterial activity against Bacillus subtilis MTCC 441 at 1500 ug/ml after 18 hr by cup plate method; settings: MTCC 441, 18 h, read-out: DIZ
[16] = system: Bacillus subtilis; test: Antibacterial activity against Bacillus subtilis MTCC 441 at 500 ug/ml after 18 hr by cup plate method; settings: MTCC 441, 18 h, read-out: DIZ
[17] = system: Bacillus subtilis; test: Antibacterial activity against Bacillus subtilis MTCC 441 at 200 ug/ml after 18 hr by cup plate method; settings: MTCC 441, 18 h, read-out: DIZ
[18] = system: Bacillus subtilis; test: Antibacterial activity against Bacillus subtilis MTCC 441 at 100 ug/ml after 18 hr by cup plate method; settings: MTCC 441, 18 h, read-out: DIZ
[19] = system: Staphylococcus aureus; test: Antibacterial activity against Staphylococcus aureus MTCC 1430 at 1500 ug/ml after 18 hr by cup-plate method; settings: MTCC 1430, 18 h, read-out: DIZ
[20] = system: Staphylococcus aureus; test: Antibacterial activity against Staphylococcus aureus MTCC 1430 at 1000 ug/ml after 18 hr by cup-plate method; settings: MTCC 1430, 18 h, read-out: DIZ
[21] = system: Staphylococcus aureus; test: Antibacterial activity against Staphylococcus aureus MTCC 1430 at 500 ug/ml after 18 hr by cup-plate method; settings: MTCC 1430, 18 h, read-out: DIZ
[22] = system: Staphylococcus aureus; test: Antibacterial activity against Staphylococcus aureus MTCC 1430 at 200 ug/ml after 18 hr by cup-plate method; settings: MTCC 1430, 18 h, read-out: DIZ
[23] = system: Staphylococcus aureus; test: Antibacterial activity against Staphylococcus aureus MTCC 1430 at 100 ug/ml after 18 hr by cup-plate method; settings: MTCC 1430, 18 h, read-out: DIZ
[24] = system: Penicillium chrysogenum; test: Antifungal activity against Penicillium chrysogenum MTCC 161 after 24 hr by broth dilution method; settings: MTCC 161, 24 h
[25] = system: Aspergillus niger; test: Antifungal activity against Aspergillus niger MTCC 2546 after 24 hr by broth dilution method; settings: MTCC 2546, 24 h
[26] = system: Escherichia coli; test: Antibacterial activity against Escherichia coli MTCC 1573 after 24 hr by broth dilution method; settings: MTCC 1573, 24 h
[27] = system: Pseudomonas fluorescens; test: Antibacterial activity against Pseudomonas fluorescens MTCC 2421 after 24 hr by broth dilution method; settings: MTCC 2421, 24 h
[28] = system: Pseudomonas aeruginosa; test: Antibacterial activity against Pseudomonas aeruginosa MTCC 424 after 24 hr by broth dilution method; settings: MTCC 424, 24 h
[29] = system: Micrococcus luteus; test: Antibacterial activity against Micrococcus luteus MTCC 1538 after 24 hr by broth dilution method; settings: MTCC 1538, 24 h
[30] = system: Bacillus pumilus; test: Antibacterial activity against Bacillus pumilus MTCC 1456 after 24 hr by broth dilution method; settings: MTCC 1456, 24 h
[31] = system: Staphylococcus aureus; test: Antibacterial activity against Staphylococcus aureus MTCC 1430 after 24 hr by broth dilution method; settings: MTCC 1430, 24 h
[32] = system: Bacillus subtilis; test: Antibacterial activity against Bacillus subtilis MTCC 441 after 24 hr by broth dilution method; settings: MTCC 441, 24 h
[33] = system: Pseudomonas fluorescens; test: Antibacterial activity against Pseudomonas fluorescens MTCC 2421 at 1000 ug/ml after 18 hr by cup-plate method; settings: MTCC 2421, 18 h, read-out: DIZ
[34] = system: Pseudomonas fluorescens; test: Antibacterial activity against Pseudomonas fluorescens MTCC 2421 at 1500 ug/ml after 18 hr by cup-plate method; settings: MTCC 2421, 18 h, read-out: DIZ
[35] = system: Pseudomonas fluorescens; test: Antibacterial activity against Pseudomonas fluorescens MTCC 2421 at 500 ug/ml after 18 hr by cup-plate method; settings: MTCC 2421, 18 h, read-out: DIZ
[36] = system: Pseudomonas fluorescens; test: Antibacterial activity against Pseudomonas fluorescens MTCC 2421 at 200 ug/ml after 18 hr by cup-plate method; settings: MTCC 2421, 18 h, read-out: DIZ
[37] = system: Penicillium chrysogenum; test: Antifungal activity against Penicillium chrysogenum MTCC 161 at 1500 ug/ml after 18 hr by cup-plate method; settings: MTCC 161, 18 h, read-out: DIZ
[38] = system: Penicillium chrysogenum; test: Antifungal activity against Penicillium chrysogenum MTCC 161 at 1000 ug/ml after 18 hr by cup-plate method; settings: MTCC 161, 18 h, read-out: DIZ
[39] = system: Penicillium chrysogenum; test: Antifungal activity against Penicillium chrysogenum MTCC 161 at 500 ug/ml after 18 hr by cup-plate method; settings: MTCC 161, 18 h, read-out: DIZ
[40] = system: Penicillium chrysogenum; test: Antifungal activity against Penicillium chrysogenum MTCC 161 at 200 ug/ml after 18 hr by cup-plate method; settings: MTCC 161, 18 h, read-out: DIZ
[41] = system: Penicillium chrysogenum; test: Antifungal activity against Penicillium chrysogenum MTCC 161 at 100 ug/ml after 18 hr by cup-plate method; settings: MTCC 161, 18 h, read-out: DIZ
[42] = system: Aspergillus niger; test: Antifungal activity against Aspergillus niger MTCC 2546 at 1000 ug/ml after 18 hr by cup-plate method; settings: MTCC 2546, 18 h, read-out: DIZ
[43] = system: Aspergillus niger; test: Antifungal activity against Aspergillus niger MTCC 2546 at 1500 ug/ml after 18 hr by cup-plate method; settings: MTCC 2546, 18 h, read-out: DIZ
[44] = system: Aspergillus niger; test: Antifungal activity against Aspergillus niger MTCC 2546 at 500 ug/ml after 18 hr by cup-plate method; settings: MTCC 2546, 18 h, read-out: DIZ
[45] = system: Aspergillus niger; test: Antifungal activity against Aspergillus niger MTCC 2546 at 100 ug/ml after 18 hr by cup-plate method; settings: MTCC 2546, 18 h, read-out: DIZ
[46] = system: Aspergillus niger; test: Antifungal activity against Aspergillus niger MTCC 2546 at 200 ug/ml after 18 hr by cup-plate method; settings: MTCC 2546, 18 h, read-out: DIZ
[47] = system: Escherichia coli; test: Antibacterial activity against Escherichia coli MTCC 1573 at 1500 ug/ml after 18 hr by cup-plate method; settings: MTCC 1573, 18 h, read-out: DIZ
[48] = system: Escherichia coli; test: Antibacterial activity against Escherichia coli MTCC 1573 at 500 ug/ml after 18 hr by cup-plate method; settings: MTCC 1573, 18 h, read-out: DIZ
[49] = system: Escherichia coli; test: Antibacterial activity against Escherichia coli MTCC 1573 at 1000 ug/ml after 18 hr by cup-plate method; settings: MTCC 1573, 18 h, read-out: DIZ
[50] = system: Escherichia coli; test: Antibacterial activity against Escherichia coli MTCC 1573 at 200 ug/ml after 18 hr by cup-plate method; settings: MTCC 1573, 18 h, read-out: DIZ
[51] = system: Escherichia coli; test: Antibacterial activity against Escherichia coli MTCC 1573 at 100 ug/ml after 18 hr by cup-plate method; settings: MTCC 1573, 18 h, read-out: DIZ
[52] = system: Pseudomonas fluorescens; test: Antibacterial activity against Pseudomonas fluorescens MTCC 2421 at 100 ug/ml after 18 hr by cup-plate method; settings: MTCC 2421, 18 h, read-out: DIZ
[53] = system: Pseudomonas aeruginosa; test: Antibacterial activity against Pseudomonas aeruginosa MTCC 424 at 1500 ug/ml after 18 hr by cup-plate method; settings: MTCC 424, 18 h, read-out: DIZ
[54] = system: Pseudomonas aeruginosa; test: Antibacterial activity against Pseudomonas aeruginosa MTCC 424 at 1000 ug/ml after 18 hr by cup-plate method; settings: MTCC 424, 18 h, read-out: DIZ

C(=N\c1nc[nH]n1)/c1cccs1
zone of inhibition at 500 µg/mL [1]: 15 mm
zone of inhibition at 200 µg/mL [2]: 13 mm
zone of inhibition at 100 µg/mL [3]: 12 mm
zone of inhibition at 1500 µg/mL [4]: 22 mm
zone of inhibition at 1000 µg/mL [5]: 20 mm
zone of inhibition at 500 µg/mL [6]: 18 mm
zone of inhibition at 200 µg/mL [7]: 16 mm
zone of inhibition at 100 µg/mL [8]: 13 mm
zone of inhibition at 1500 µg/mL [9]: 18 mm
zone of inhibition at 1000 µg/mL [10]: 17 mm
zone of inhibition at 500 µg/mL [11]: 16 mm
zone of inhibition at 200 µg/mL [12]: 15 mm
zone of inhibition at 100 µg/mL [13]: 13 mm
zone of inhibition at 1000 µg/mL [14]: 16 mm
zone of inhibition at 1500 µg/mL [15]: 22 mm
zone of inhibition at 500 µg/mL [16]: 14 mm
zone of inhibition at 200 µg/mL [17]: 11 mm
zone of inhibition at 100 µg/mL [18]: 10 mm
zone of inhibition at 1500 µg/mL [19]: 19 mm
zone of inhibition at 1000 µg/mL [20]: 18 mm
zone of inhibition at 500 µg/mL [21]: 16 mm
zone of inhibition at 200 µg/mL [22]: 13 mm
zone of inhibition at 100 µg/mL [23]: 11 mm
MIC [24]: 400 µg/mL (≈ 2240 µM)
MIC [25]: 300 µg/mL (≈ 1680 µM)
MIC [26]: 200 µg/mL (≈ 1120 µM)
MIC [27]: 300 µg/mL (≈ 1680 µM)
MIC [28]: 200 µg/mL (≈ 1120 µM)
MIC [29]: 200 µg/mL (≈ 1120 µM)
MIC [30]: 200 µg/mL (≈ 1120 µM)
MIC [31]: 300 µg/mL (≈ 1680 µM)
MIC [32]: 300 µg/mL (≈ 1680 µM)
zone of inhibition at 1000 µg/mL [33]: 18 mm
zone of inhibition at 1500 µg/mL [34]: 21 mm
zone of inhibition at 500 µg/mL [35]: 15 mm
zone of inhibition at 200 µg/mL [36]: 13 mm
zone of inhibition at 1500 µg/mL [37]: 19 mm
zone of inhibition at 1000 µg/mL [38]: 18 mm
zone of inhibition at 500 µg/mL [39]: 16 mm
zone of inhibition at 200 µg/mL [40]: 15 mm
zone of inhibition at 100 µg/mL [41]: 13 mm
zone of inhibition at 1000 µg/mL [42]: 16 mm
zone of inhibition at 1500 µg/mL [43]: 19 mm
zone of inhibition at 500 µg/mL [44]: 15 mm
zone of inhibition at 100 µg/mL [45]: 11 mm
zone of inhibition at 200 µg/mL [46]: 13 mm
zone of inhibition at 1500 µg/mL [47]: 21 mm
zone of inhibition at 500 µg/mL [48]: 18 mm
zone of inhibition at 1000 µg/mL [49]: 20 mm
zone of inhibition at 200 µg/mL [50]: 16 mm
zone of inhibition at 100 µg/mL [51]: 14 mm
zone of inhibition at 100 µg/mL [52]: 11 mm
zone of inhibition at 1500 µg/mL [53]: 20 mm
zone of inhibition at 1000 µg/mL [54]: 18 mm
